According to publication PMC12040169 (PLOS Biology, 2025):

Experiment: in vitro
Details: human, hela cells, % viability

Row | Structure (SMILES) | viability at 28.5 h, 10 µM
1 | O=C(N/N=C/c1ccc([N+](=O)[O-])cc1)c1ccc(O)cc1O [CBK261591] | 105%
2 | COCC1OC(n2cc(C)c(=O)[nH]c2=O)CC1O (stereo not shown) [CBK201338] | 94.5%
3 | COc1ccc([N+](=O)[O-])c(Sc2cccs2)n1 [CBK002625] | 84.9%
4 | Cc1cc(C(=O)Nc2nc(Cc3n[nH]c(=S)n3C)cs2)sc1C [CBK296687] | 68.5%
5 | CC(=O)OC1CCN(C(=O)c2cccc(C#N)c2)CC1 [CBK304648] | 93.3%
6 | CN1CCc2nc(SCC(=O)c3ccc(-c4ccccc4)cc3)c(C#N)c(-c3cccs3)c2C1 [CBK267447] | 88.3%
7 | CCOC(=O)c1cnc2nc3ccccc3n2c1C [CBK270185] | 95.4%
8 | O=C(O)CCC(=O)NCc1ccc(-c2nccnc2NS(=O)(=O)c2ccc(O)cc2)cc1 [CBK073843] | 106%
9 | CC(C)COc1ccc(-c2nonc2NC(=O)c2cccs2)cc1 [CBK299822] | 103%
10 | CN1CCN(c2nccnc2-c2cccc(F)c2)CC1 [CBK036876] | 89.8%
11 | CCN1C(=O)/C(=C\NN=C2CCCC2)c2ccc(C3=NNC(=O)CC3)cc21 [CBK263515] | 88.1%
12 | COC(=O)CN1C(=O)S/C(=C/c2cc(C)n(-c3ccc4ncccc4c3)c2C)C1=O [CBK265275] | 121%
13 | O=[N+]([O-])c1ccccc1/C=N/Nc1nnn[nH]1 [CBK260971] | 106%
14 | O=C(NC(c1ccccc1)c1ccsc1)C1CCN(C2Cc3ccccc3C2)CC1 (stereo not shown) [CBK148541] | 80%
15 | COc1ccc(-c2cc(CC3(NC(C)=O)COC3)no2)cc1 [CBK289428] | 94.5%
16 | Cc1ccc(NC(=O)c2cc(NC(=O)c3ccccc3C(=O)O)ccc2N2CCCCC2)cc1 [CBK265332] | 100%
17 | CN(C)c1cccc(Nc2ccc(/C=C/c3ccccc3)cn2)c1 [CBK036984] | 98.7%
18 | O=C(O)c1cc(S(=O)(=O)Nc2ccc(O)cc2)c(Cl)cc1Cl [CBK113231] | 86.8%
19 | COc1ccc(-c2nc3c(n2O)CCc2c-3no[n+]2[O-])cc1OC [CBK262350] | 80.3%
20 | CCNc1cc(-c2cncc(OC)c2)ncn1 [CBK090881] | 101%
21 | COc1ccc(C2CC(=O)C(=CNCCCN3CCOCC3)C(=O)C2)cc1 (stereo not shown) [CBK263647] | 84.9%

Row | Structure (SMILES) | viability at 28.5 h, 10 µM
22 | Cc1ccn(CCNC(=O)c2ccc3c(C)c(C)[nH]c3c2)n1 [CBK282519] | 101%
23 | c1ccc(CN2CCN(Cc3c[nH]c(-c4ccccc4)n3)CC2)cc1 [CBK074775] | 84.6%
24 | O=C(COc1ccccc1Cl)N/N=C/c1ccc(-c2ccccc2[N+](=O)[O-])o1 [CBK262782] | 112%
25 | CN(C)CCNCCOc1cccc([N+](=O)[O-])c1 [CBK267803C] | 99.7%
26 | O=C(NC[C@H]1O[C@@H](CC(=O)N2CCCC2)[C@H](O)[C@@H]1O)c1cccc(F)c1 [CBK288908] | 88.3%
27 | COc1cccc(CNc2nccc(-n3nc(C)cc3C)n2)c1 [CBK288612] | 96%
28 | Cc1noc(C)c1NC(=O)CN1CCOCC1 [CBK200381] | 103%
29 | O=C(O)CCC(=O)N1N=C(c2ccccc2)CC1c1ccc2nccnc2c1 (stereo not shown) [CBK266650] | 86.1%
30 | CC(C)(C)c1ccc(OCc2nc(N)c3c(N)n[nH]c3n2)cc1 [CBK008565] | 90.8%
31 | CC1CCC2(CC1)N=C(N)Nc1nc3ccccc3n12 (stereo not shown) [CBK277657] | 88.4%
32 | COC(=O)c1cc(S(=O)(=O)NC2CCCc3ccccc32)cn1C (stereo not shown) [CBK304616] | 98.4%
33 | CCOC1=NCCN2CCc3cccc1c32 [CBK023113] | 117%
34 | CC(C)c1ccc(S(=O)(=O)N(C)Cc2cccnc2)cc1 [CBK043582] | 108%
35 | CCn1cc(CC(=O)Nc2cccc(-n3cnnc3)c2)c2ccccc21 [CBK282669] | 66.4%
36 | COc1ccc([C@@]23CC[C@@H](NC(=O)Nc4ccc(Cl)nc4)C[C@@H]2N(C)CC3)cc1OC [CBK045764] | 91.9%
37 | Cc1cc(O)ccc1C(CC(=O)O)c1ccccc1 (stereo not shown) [CBK013350] | 100%
38 | C=CCn1c(Cc2csc(NC(=O)c3cnc(C)cn3)n2)n[nH]c1=S [CBK295319] | 90.4%
39 | CC(C)(C)OC(=O)NCC1(CC(=O)O)CCCCC1 [CBK287030] | 93%
40 | CC(C)(C)c1ccc(C(=O)N2CC[C@H]3NC(=O)N(Cc4ccccc4)C(=O)[C@H]32)cc1 [CBK289294] | 86%
41 | Clc1ccccc1-c1nccnc1OCCOc1ccccc1 [CBK107011] | 95.9%
42 | Cc1c(C(=O)N2CCC(c3c(C(=O)NC(C)C)sc4ccccc34)C2)[nH]c2ccccc12 (stereo not shown) [CBK285872] | 84.8%

Row | Structure (SMILES) | viability at 28.5 h, 10 µM
43 | Cc1cccc(C)c1NC(=O)CN1CCCN(c2cc(OCCN3C(=O)CCC3=O)ncn2)CC1 [CBK083313T] | 97.9%
44 | Cc1scc(C(=O)NN2CCN(C)CC2)c1-c1ccccc1 [CBK268115] | 93%
45 | COc1cccc(-c2nc(CC(=O)N3CCC(C(=O)O)CC3)cs2)c1 [CBK286797] | 92.3%
46 | Cc1ccncc1C(=O)NCc1ccccc1 [CBK200193] | 110%
47 | CC(NC(=O)N1CCN(c2ccccc2)CC1)c1ccccc1 (stereo not shown) [CBK155207] | 99.3%
48 | CCn1ncnc1CN(C)Cc1ccc2c(c1)CN(C)C2 [CBK306530] | 86.1%
49 | Cc1ccc(-c2ccc(CCC(=O)O)n2N=C(N)S)cc1 [CBK265870] | 91%
50 | O=C(O)CSc1c[nH]c2ccccc12 [CBK026377] | 93.9%
51 | C[C@H](NC(=O)Cn1cc(-c2ccc(CN3CCCC3)cc2)nn1)c1ccc(Br)cc1 [CBK167692] | 86%
52 | Cc1cc(NS(=O)(=O)c2cc(C(F)(F)F)cc(C(F)(F)F)c2)n(C)n1 [CBK067261] | 105%
53 | CC(C)(C)OC(=O)N(Cc1cccs1)S(C)(=O)=O [CBK019338] | 94.1%
54 | CCCC(=O)N(C)C1CCC2(CC1)CNC(=O)c1cc(C)ccc1O2 (stereo not shown) [CBK281694] | 88.3%
55 | CCN(CC)CCN1C(=O)C(O)=C(C(=O)c2ccc(C)o2)C1c1ccccn1 (stereo not shown) [CBK266584] | 109%
56 | S=C(NCc1ccc(-n2cccn2)cc1)NCC1CCCO1 (stereo not shown) [CBK267083] | 96.7%
57 | CNS(=O)(=O)CCNC(=O)N1CCCN(Cc2ccc(F)cc2)CC1 [CBK304658] | 88.8%
58 | O=C(c1cccc(C(=O)N(Cc2ccccc2)c2ccccn2)c1)N(Cc1ccccc1)c1ccccn1 [CBK091794] | 111%
59 | [O-][N+]1=C2CCc3c(no[n+]3[O-])C2(O)CC1N1CCOCC1 (stereo not shown) [CBK261515] | 112%
60 | c1ccc(-c2nnc3sc(-c4ccccn4)nn23)cc1 [CBK267344] | 96.2%
61 | CC(=O)Cc1c(C(=O)O)c(C)nn1-c1ccccc1 [CBK286779] | 104%
62 | CS(=O)(=O)N1CC2(CCN(Cc3ccc(Cl)c(Cl)c3)CC2)c2ccccc21 [CBK084043] | 102%
63 | CC(C)(C)c1ccc(-n2cc(-c3ccc(F)cc3F)nn2)cc1 [CBK094818] | 85.4%

Same assay, conditions: human, hela cells, % viability, bulk resorufin, single well

Row | Structure (SMILES) | viability at 28.5 h, 10 µM
64 | COc1ccccc1NC(=O)N1CCC2(CC1)OCc1cc(-c3ccccc3)ccc1O2 [CBK060599] | 109%
